From article PMC9329436, “Optimization of the 4-anilinoquin(az)oline scaffold as epidermal growth factor receptor (EGFR) inhibitors for chordoma utilizing a toxicology profiling assay platform” (Scientific Reports, 2022)
Read-outs that look alike come from different tables or passages of the source.

What was measured:
[1] = tested on: U-CH1 chordoma cell line; conditions: previously reported, Figure 1; cited from earlier work
[2] = tested on: U-CH2 chordoma cell line; conditions: previously reported, Figure 1; cited from earlier work
[3] = tested on: HL60 cells; assay: AsedaSciences SYSTEMETRIC Cell Health Screen (flow cytometry toxicity profiling); conditions: HL60, 4 h, 5 nM–100 µM; for CC: Cell Cycle score / CM: Cell morphology score / CMI: Cell membrane integrity score / GSH: Glutathione score / MMP: Mitochondrial membrane depolarization score / NMI1: Nuclear membrane integrity 1 score / NMI2: Nuclear membrane integrity 2 score / ROS: Reactive superoxide species score: probability 0–1, n = 2; for CHI: Cell Health Index: probability (0–1) of high-risk class, n = 2
How it was run: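 Risk scores derive from a logistic-regression ML classifier comparing flow-cytometric stress phenotypes with those of 300 reference compounds of known high or low human risk. Phenotypes: light scatter plus fluorescent physiological dyes, twelve parameters, no gating. Compounds tested 5 nM–100 µM (3× steps, duplicate) on HL60 cells, 4 h, 37 °C.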

[4] = tested on: U-CH7 patient-derived chordoma cell line; assay: Cell viability assay (alamarBlue, 72 h), U-CH7; assay type: cell-based, human; conditions: n = 4, 72 h
How it was run: (§1)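 Patient-derived chordoma lines and WS1 fibroblasts seeded in 384-well plates, dosed in quadruplicate 24 h after plating.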

[5] = tested on: CH22 patient-derived chordoma cell line; assay: Cell viability assay (alamarBlue, 72 h), CH22; assay type: cell-based, human; conditions: n = 4, 72 h
How it was run: as §1

[6] = tested on: U-CH1 chordoma cell line; assay: Cell viability assay (alamarBlue, 72 h), U-CH1; assay type: cell-based, human; conditions: n = 4, 72 h
How it was run: (§2)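 Compound added in quadruplicate 24 h after plating; cultures maintained in 4:1 IMDM:RPMI, 10% FBS, gel-coated flasks.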

[7] = tested on: U-CH12 patient-derived chordoma cell line; assay: Cell viability assay (alamarBlue, 72 h), U-CH12; assay type: cell-based, human; conditions: n = 4, 72 h
How it was run: as §1

[8] = tested on: WS1 human fibroblast cell line; assay: Cell viability assay, WS1 toxicity control; assay type: cell-based; conditions: n = 4, nonspecific toxicity control
How it was run: as §1

[9] = target: EGFR (Homo sapiens, UniProt P00533); assay: ProQinase in-cell EGFR assay (EGFR phosphorylation in A431 cells); assay type: cell-based; parameters: This cell line endogenously expresses a high level of EGFR; endogenous in cells; host or cells: A431; conditions: ProQinase in-cell EGFR assay, A431 cells, n = 1
Sequence of EGFR (P00533 25-1210): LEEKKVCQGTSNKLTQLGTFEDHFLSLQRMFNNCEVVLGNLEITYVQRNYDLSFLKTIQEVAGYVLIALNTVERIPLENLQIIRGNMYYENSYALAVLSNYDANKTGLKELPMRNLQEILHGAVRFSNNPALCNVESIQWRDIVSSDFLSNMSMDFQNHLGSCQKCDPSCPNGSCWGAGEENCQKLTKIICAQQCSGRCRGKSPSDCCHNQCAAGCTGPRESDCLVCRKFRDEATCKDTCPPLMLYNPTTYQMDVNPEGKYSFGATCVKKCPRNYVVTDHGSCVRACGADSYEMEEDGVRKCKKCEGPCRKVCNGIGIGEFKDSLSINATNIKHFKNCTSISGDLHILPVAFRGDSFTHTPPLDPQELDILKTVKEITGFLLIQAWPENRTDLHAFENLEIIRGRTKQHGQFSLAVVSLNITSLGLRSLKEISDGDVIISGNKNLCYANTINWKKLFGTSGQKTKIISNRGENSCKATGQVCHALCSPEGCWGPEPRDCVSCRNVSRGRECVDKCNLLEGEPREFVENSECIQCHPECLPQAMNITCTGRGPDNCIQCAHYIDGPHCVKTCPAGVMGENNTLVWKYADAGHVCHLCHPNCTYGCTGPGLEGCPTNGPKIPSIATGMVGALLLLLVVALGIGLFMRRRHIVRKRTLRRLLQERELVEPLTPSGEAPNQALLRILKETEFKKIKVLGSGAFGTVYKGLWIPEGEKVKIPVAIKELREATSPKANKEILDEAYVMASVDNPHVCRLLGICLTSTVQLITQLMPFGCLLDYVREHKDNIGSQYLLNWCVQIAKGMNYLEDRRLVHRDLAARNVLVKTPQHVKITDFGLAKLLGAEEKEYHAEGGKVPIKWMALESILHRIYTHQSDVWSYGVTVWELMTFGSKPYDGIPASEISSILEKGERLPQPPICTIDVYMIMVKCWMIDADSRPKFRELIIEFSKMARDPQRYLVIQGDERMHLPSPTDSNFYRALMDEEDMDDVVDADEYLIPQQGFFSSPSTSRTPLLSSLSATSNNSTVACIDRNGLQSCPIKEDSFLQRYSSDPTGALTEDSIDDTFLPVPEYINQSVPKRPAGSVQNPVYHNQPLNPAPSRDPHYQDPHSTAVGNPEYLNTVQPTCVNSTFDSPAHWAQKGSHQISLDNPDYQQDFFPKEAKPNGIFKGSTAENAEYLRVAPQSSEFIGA
Text: In addition, we ran an EGFR in-cell target engagement assay, measuring in-cell EGFR phosphorylation, using the human epidermoid carcinoma cell line A431. This cell line endogenously expresses a high level of EGFR, and stimulation of these cells with human epidermal growth factor (EGF) results in receptor tyrosine autophosphorylation.

[10] = tested on: U-CH2 chordoma cell line; assay: Cell viability assay (alamarBlue, 72 h), U-CH2; assay type: cell-based, human
How it was run: as §2

[11] = tested on: UM-Chor1 patient-derived chordoma cell line; assay: Cell viability assay (alamarBlue, 72 h), UM-Chor1; assay type: cell-based, human; conditions: n = 4, 72 h
How it was run: as §1

Row | Compound | IC50 [1] [µM] | IC50 [2] [µM] | CC: Cell Cycle score [3] | CM: Cell morphology score [3] | CMI: Cell membrane integrity score [3] | GSH: Glutathione score [3] | MMP: Mitochondrial membrane depolarization score [3] | NMI1: Nuclear membrane integrity 1 score [3] | NMI2: Nuclear membrane integrity 2 score [3] | ROS: Reactive superoxide species score [3] | CHI: Cell Health Index [3] | IC50 [6] [µM] | IC50 [9] [µM] | IC50 [4] [µM] | IC50 [5] [µM] | IC50 [7] [µM] | IC50 [8] [µM] | IC50 ([10]; n = 4, 72 h) [µM] | IC50 [11] [µM] | other results
1 | CN(C)C/C=C/C(=O)Nc1cc2c(Nc3ccc(F)c(Cl)c3)ncnc2cc1O[C@H]1CCOC1 [Afatinib, reference compound] | 0.1 | 6.4 | 0.93 | 1.00 | 1.00 | 1.00 | 1.00 | 1.00 | 0.99 | 1.00 | 0.92 |  |  |  |  |  |  |  |  | 
2 | C#Cc1cccc(Nc2ncnc3cc(OC)c(OC)cc23)c1 [Compound 1, N-(3-ethynylphenyl)-6,7-dimethoxyquinazolin-4-amine] | 0.92 | > 50 | 0.086 | 0.85 | 0.11 | 0.18 | 0.39 | 0.47 | 0.41 | 0.32 | 0.41 | 0.63 | 0.019 |  |  |  |  |  |  | IC50 ([4]; Homo sapiens): 23 µM; IC50 ([5]; Homo sapiens): > 100 µM; IC50 ([6]; Homo sapiens, UCH1, 72 h): < 1 µM; IC50 ([7]; Homo sapiens): > 100 µM; IC50 ([8]; Homo sapiens, Fibroblast): 15 µM; IC50 ([10]; Homo sapiens, UCH2, n = 4, 72 h): 66 µM; IC50 ([11]; Homo sapiens): 28 µM
3 | C#Cc1cccc(Nc2ccnc3ccc(I)cc23)c1F [Compound 35] |  |  | 0.12 | 0.0052 | 0.78 | 0.16 | 0.47 | 0.62 | 0.62 | 0.46 | 0.37 | 8.9 | 1.9 | > 100 | > 100 | > 100 | 85 | > 100 | > 100 | 
4 | C#Cc1ccc(F)c(Nc2ncnc3ccc(I)cc23)c1 [Compound 34] |  |  | 0.25 | 0.025 | 0.014 | 0.044 | 0.030 | 0.17 | 0.078 | 0.074 | 0.18 | 27 | 0.76 | > 100 | > 100 | > 100 | > 100 | > 100 | > 100 | 
